Experimental findings from paper PMC8500670, “A selective WDR5 degrader inhibits acute myeloid leukemia in patient-derived mouse models” (Science translational medicine, 2021) are described below.

Molecules are shown by their SMILES. Read-outs that look alike come from different tables or passages of the source.

Holding throughout (assay): biochemical
The target in assay [1] is T1, PRMT4 (Homo sapiens, UniProt Q86X55).
T1 construct: gene CARM1
T1 sequence (Q86X55 1-608): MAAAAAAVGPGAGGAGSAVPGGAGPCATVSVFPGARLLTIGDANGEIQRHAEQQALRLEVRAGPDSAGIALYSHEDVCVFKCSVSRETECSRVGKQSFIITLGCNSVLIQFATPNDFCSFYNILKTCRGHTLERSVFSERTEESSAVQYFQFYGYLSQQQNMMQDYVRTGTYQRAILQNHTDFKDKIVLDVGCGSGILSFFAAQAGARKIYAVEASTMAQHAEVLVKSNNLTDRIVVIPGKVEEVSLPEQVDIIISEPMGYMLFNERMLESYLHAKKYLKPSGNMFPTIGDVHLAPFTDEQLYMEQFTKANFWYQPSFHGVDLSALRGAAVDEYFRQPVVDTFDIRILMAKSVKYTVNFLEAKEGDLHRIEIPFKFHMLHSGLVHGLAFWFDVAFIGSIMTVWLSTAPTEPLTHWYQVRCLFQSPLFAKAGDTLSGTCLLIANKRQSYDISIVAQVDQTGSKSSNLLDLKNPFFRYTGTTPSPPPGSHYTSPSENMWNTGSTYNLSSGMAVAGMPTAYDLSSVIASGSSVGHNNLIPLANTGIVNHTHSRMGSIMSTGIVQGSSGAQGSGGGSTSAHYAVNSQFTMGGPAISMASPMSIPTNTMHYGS
Further details: protein methyltransferase selectivity panel, enzyme activity relative to DMSO controls, single concentration in duplicate. As to conditions: Substrate:=Histone H3. The method, then:
(§1) We next assessed selectivity of MS67 against 22 protein methyltransferases (table S2) and a broad panel of common drug targets including 45 kinases (table S3) and 44 G protein–coupled receptors (GPCR), ion channels, and transporters (table S4). […] We subsequently determined that MS67 had moderate binding affinity (Ki = 1.0 ± 0.8 μM) to Sigma 2 receptor (fig. S10).

Assay [2] concerns the target PRMT8 (Homo sapiens, UniProt Q9NR22). Details: protein methyltransferase selectivity panel, enzyme activity relative to DMSO controls, single concentration in duplicate. As to conditions: Substrate:=Histone H4. The method, then: as §1
Assay [3] deals with T2, PRMT7 (Homo sapiens, UniProt Q9NVM4).
T2 sequence (Q9NVM4 1-692): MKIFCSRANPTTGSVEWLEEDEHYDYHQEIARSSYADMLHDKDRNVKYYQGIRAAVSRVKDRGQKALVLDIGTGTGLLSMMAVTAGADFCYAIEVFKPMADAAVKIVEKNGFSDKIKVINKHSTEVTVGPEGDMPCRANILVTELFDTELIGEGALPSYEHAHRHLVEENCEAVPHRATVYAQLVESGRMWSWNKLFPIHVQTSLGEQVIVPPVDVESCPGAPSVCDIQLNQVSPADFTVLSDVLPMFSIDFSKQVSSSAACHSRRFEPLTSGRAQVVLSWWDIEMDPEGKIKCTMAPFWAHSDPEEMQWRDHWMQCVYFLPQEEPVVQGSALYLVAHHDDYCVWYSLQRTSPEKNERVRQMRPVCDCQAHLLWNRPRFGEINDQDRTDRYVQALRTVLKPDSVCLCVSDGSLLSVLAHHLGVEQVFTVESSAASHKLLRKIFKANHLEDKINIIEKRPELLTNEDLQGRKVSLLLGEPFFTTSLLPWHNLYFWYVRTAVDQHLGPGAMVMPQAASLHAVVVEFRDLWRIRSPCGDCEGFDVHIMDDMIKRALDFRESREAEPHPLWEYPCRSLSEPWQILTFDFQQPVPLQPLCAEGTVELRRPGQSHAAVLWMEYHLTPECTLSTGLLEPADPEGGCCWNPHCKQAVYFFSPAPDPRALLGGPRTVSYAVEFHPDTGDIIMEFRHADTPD
Further details: protein methyltransferase selectivity panel, enzyme activity relative to DMSO controls, single concentration in duplicate. As to conditions: Substrate:=GST-GAR. The method, then: as §1

Assay [4] has as its target NEK2 (Homo sapiens, UniProt P51955). Further details: kinase selectivity panel, single concentration, duplicate. The method, then:
as §1

Assay [5] addresses EphB4 (Homo sapiens, UniProt P54760). Details: kinase selectivity panel, single concentration, duplicate. The protocol:
as §1

The target of assay [6] is T3, IKKα (Homo sapiens, UniProt O15111).
T3 construct: gene CHUK
Further details: kinase selectivity panel, single concentration, duplicate. The method, then:
as §1

Assay [7] has as its target T4, Abl (Homo sapiens, UniProt P00519).
T4 construct: gene ABL1
Details: kinase selectivity panel, single concentration, duplicate. The method, then: as §1

The target of assay [8] is FGFR3 (Homo sapiens, UniProt P22607). Further details: kinase selectivity panel, single concentration, duplicate. The protocol:
as §1

The target in assay [9] is T5, Mnk2 (Homo sapiens, UniProt Q9HBH9).
T5 construct: gene MKNK2
T5 sequence (Q9HBH9 whole entry): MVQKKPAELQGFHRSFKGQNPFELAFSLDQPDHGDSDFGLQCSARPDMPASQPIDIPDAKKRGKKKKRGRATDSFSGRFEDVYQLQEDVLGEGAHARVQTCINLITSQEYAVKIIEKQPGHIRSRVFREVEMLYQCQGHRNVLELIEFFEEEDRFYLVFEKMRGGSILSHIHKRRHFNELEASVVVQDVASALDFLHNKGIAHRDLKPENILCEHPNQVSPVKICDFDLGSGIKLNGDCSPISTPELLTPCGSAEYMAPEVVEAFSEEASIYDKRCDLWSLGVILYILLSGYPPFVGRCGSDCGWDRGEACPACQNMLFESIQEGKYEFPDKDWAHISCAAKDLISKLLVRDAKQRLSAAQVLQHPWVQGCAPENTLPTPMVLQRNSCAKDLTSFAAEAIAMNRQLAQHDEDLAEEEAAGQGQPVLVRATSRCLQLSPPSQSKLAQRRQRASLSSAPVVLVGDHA
Details: kinase selectivity panel, single concentration, duplicate. The method, then:
as §1

The target of assay [10] is T6, PKCβII (Homo sapiens, UniProt P05771).
T6 construct: gene PRKCB; isoform beta II
Details: kinase selectivity panel, single concentration, duplicate. The method, then: as §1

The target of assay [11] is T7, PKA (Homo sapiens, UniProt P17612).
T7 construct: gene PRKACA
Further details: kinase selectivity panel, single concentration, duplicate. The method, then: as §1

For assay [12], the target named is T8, SGK (Homo sapiens, UniProt O00141).
T8 construct: gene SGK1
Further details: kinase selectivity panel, single concentration, duplicate. The protocol: as §1

Assay [13] deals with T9, CHK2 (Homo sapiens, UniProt O96017).
T9 construct: gene CHEK2
Details: kinase selectivity panel, single concentration, duplicate. The protocol:
as §1

For assay [14], the target named is SET1b Complex (Homo sapiens, UniProt Q9UPS6). Details: gene SETD1B; Complex; protein methyltransferase selectivity panel, enzyme activity relative to DMSO controls, single concentration in duplicate. As to conditions: Substrate:=Core Histone. The protocol:
as §1

Where [15] appears, read: read-out: Enzyme % Activity (relative to DMSO controls) / MS67 / 10 / Data 1:
The mark [16] stands for this setting: read-out: Enzyme % Activity (relative to DMSO controls) / MS67 / 10 / Data 2:

PRMT8, sequence (Q9NR22 whole entry): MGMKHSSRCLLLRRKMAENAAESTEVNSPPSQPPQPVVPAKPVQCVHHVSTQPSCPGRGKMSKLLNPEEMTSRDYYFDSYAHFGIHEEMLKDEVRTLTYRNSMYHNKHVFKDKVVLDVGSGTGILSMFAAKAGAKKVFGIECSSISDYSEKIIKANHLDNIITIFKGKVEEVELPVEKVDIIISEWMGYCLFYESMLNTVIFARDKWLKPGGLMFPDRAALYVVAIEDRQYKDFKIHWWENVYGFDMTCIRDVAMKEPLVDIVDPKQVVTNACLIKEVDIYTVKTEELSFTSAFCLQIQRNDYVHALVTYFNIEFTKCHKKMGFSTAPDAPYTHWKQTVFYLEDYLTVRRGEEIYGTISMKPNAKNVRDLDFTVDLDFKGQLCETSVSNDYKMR
SET1b Complex, sequence (Q15291 whole entry): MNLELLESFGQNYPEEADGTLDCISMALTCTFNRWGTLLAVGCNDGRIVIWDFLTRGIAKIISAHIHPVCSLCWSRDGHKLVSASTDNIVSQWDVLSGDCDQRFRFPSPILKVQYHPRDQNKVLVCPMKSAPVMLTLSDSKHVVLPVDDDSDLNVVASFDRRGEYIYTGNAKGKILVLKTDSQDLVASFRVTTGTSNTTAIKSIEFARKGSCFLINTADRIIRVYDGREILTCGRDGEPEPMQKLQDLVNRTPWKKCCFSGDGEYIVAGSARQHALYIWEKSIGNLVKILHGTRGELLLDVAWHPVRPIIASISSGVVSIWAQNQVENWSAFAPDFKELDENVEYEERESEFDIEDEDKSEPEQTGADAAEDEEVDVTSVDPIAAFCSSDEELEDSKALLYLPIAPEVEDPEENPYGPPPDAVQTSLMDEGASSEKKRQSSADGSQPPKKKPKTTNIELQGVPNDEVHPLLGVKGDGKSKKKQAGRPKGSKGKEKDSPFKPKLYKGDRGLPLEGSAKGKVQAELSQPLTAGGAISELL
SET1b Complex, sequence (Q9UPS6 whole entry): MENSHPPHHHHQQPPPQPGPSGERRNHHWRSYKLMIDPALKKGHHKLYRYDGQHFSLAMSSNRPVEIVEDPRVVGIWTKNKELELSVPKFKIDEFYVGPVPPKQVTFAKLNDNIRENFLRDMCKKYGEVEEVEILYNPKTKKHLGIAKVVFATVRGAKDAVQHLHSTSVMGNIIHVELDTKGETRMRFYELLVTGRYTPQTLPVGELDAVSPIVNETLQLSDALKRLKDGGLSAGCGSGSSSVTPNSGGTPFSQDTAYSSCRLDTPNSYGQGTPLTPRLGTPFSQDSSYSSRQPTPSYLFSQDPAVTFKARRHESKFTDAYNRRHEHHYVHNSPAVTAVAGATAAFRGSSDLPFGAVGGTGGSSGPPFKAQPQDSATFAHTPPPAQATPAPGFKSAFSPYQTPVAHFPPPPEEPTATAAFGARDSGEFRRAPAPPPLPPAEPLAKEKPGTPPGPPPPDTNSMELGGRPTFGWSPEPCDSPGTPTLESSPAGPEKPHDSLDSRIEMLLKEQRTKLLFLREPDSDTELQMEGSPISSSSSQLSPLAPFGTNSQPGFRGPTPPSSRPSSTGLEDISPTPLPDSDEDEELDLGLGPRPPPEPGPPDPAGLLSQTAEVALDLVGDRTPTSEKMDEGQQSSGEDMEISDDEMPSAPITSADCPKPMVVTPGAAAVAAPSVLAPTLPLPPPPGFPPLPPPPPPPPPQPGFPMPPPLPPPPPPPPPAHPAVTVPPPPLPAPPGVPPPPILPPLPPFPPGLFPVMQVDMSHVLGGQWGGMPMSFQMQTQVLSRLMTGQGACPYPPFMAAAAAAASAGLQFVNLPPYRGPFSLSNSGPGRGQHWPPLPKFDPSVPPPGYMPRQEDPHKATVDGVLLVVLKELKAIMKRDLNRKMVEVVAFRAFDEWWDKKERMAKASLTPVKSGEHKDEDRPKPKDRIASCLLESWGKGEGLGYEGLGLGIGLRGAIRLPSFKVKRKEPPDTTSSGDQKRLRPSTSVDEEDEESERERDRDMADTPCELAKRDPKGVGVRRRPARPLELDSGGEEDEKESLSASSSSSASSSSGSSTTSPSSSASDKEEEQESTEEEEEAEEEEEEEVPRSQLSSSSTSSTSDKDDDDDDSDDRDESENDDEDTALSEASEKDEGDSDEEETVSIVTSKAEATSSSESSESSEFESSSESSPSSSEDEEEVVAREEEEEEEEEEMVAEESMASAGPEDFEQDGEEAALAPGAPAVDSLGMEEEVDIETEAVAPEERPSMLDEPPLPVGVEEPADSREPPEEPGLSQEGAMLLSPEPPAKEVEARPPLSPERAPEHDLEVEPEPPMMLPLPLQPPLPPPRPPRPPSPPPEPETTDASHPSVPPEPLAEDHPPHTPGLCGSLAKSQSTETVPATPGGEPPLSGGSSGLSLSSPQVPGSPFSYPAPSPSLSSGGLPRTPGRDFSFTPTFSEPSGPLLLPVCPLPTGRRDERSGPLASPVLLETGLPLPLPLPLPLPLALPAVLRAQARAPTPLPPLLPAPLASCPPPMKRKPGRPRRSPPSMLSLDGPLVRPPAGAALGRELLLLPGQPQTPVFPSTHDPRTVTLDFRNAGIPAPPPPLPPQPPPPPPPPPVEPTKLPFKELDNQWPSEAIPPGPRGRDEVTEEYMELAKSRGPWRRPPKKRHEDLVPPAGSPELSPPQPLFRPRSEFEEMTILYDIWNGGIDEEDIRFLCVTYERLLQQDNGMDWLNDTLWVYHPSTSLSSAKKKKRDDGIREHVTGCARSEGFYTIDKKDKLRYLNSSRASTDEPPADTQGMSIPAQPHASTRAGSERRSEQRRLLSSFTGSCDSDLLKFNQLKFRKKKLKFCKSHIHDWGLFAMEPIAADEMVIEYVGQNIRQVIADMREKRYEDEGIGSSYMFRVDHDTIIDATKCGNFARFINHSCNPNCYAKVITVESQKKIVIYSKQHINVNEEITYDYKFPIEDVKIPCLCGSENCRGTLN
SET1b Complex, sequence (Q9C005 whole entry, further chain): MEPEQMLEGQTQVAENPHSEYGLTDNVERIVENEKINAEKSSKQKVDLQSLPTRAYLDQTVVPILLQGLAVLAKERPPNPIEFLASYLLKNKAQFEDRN
SET1b Complex, sequence (Q9UBL3 whole entry, further chain): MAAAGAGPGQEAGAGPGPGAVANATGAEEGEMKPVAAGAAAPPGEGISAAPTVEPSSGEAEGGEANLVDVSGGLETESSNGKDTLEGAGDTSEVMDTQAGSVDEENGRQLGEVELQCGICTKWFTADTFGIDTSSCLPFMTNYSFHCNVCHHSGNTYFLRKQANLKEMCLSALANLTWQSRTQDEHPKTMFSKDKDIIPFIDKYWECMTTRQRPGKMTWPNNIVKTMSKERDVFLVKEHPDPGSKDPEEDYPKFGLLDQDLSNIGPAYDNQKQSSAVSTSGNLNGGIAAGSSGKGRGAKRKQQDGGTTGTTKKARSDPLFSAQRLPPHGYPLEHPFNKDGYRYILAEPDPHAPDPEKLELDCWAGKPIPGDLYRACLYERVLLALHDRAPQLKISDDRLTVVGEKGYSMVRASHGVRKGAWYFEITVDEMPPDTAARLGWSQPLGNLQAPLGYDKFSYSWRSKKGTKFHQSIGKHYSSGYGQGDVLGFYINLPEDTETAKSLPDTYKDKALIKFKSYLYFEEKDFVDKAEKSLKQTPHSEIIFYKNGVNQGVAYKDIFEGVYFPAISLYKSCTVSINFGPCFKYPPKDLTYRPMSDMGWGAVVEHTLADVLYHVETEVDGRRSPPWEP
EphB4, sequence (P54760 whole entry): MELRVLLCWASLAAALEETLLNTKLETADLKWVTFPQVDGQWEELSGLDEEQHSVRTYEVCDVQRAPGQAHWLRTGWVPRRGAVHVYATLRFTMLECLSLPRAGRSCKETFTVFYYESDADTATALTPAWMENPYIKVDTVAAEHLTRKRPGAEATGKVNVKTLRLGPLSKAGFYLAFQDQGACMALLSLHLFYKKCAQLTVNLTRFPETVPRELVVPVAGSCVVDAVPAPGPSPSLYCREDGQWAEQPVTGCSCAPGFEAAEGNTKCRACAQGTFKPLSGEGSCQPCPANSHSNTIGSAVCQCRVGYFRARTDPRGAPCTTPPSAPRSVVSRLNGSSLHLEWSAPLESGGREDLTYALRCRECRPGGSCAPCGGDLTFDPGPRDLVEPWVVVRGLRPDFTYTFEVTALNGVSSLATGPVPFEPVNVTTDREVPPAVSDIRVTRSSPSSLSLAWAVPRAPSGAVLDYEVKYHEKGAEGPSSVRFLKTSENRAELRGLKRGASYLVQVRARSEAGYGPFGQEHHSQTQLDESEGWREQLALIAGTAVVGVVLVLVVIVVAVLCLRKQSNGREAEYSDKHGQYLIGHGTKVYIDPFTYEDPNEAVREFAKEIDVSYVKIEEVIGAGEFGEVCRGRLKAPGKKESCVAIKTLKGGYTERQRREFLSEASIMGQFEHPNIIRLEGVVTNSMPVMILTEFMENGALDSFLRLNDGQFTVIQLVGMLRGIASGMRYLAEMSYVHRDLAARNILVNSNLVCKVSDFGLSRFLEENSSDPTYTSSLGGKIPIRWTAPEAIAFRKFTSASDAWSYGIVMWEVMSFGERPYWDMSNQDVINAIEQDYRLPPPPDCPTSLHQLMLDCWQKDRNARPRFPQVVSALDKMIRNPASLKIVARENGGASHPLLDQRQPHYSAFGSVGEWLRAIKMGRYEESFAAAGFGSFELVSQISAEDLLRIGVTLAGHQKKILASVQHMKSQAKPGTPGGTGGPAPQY

Broadly, the inhibition is the percentage by which the read-out fell short of the control. Read a high inhibition as strong suppression. Take `Cc1ncsc1-c1ccc([C@H](C)NC(=O)[C@@H]2C[C@@H](O)CN2C(=O)[C@@H](NC(=O)CNC(=O)c2ccc(F)c(-c3ccc(N4C[C@@H](C)N(C)[C@@H](C)C4)c(NC(=O)c4c[nH]c(=O)cc4C(F)(F)F)c3)c2)C(C)(C)C)cc1` [MS67]: the remaining activity at 10 µM was determined as 107% in assay [1] (setting [15]); 98.9% in [1] (setting [16]); 102% in assay [2] (setting [15]); 98.1% in [2] (setting [16]); 100% in assay [3] (setting [15]); 103% in assay [3] (setting [16]). The remaining activity at 10 µM was 94.9% in [14] (setting [15]) and 92.1% in [14] (setting [16]). For the same compound, the inhibition at 1 µM in assay [4], in [5], in assay [6], in [7], in [8] and in assay [9] was below 10% in each case. Moreover, the inhibition at 1 µM in [10], in assay [11], in assay [12] and in assay [13] was below 10% in each case.
